Patent publication US10870670B2, “Preparation of (S,S)-secoisolariciresinol diglucoside and (R,R)-secoisolariciresinol diglucoside” (The Trustees of the University of Pennsylvania, priority 2013, dated 2020)

Experiments:
Format in all cases: biochemical
[1] = Reducing power activity assay (ferricyanide reduction, absorbance at 700 nm); settings: regression line over 1-100 μM; sodium phosphate buffer pH 6.6; n=3; read-out: EC50 for reducing power (mean±std. dev.)
Procedure: The determination of reducing power was performed as described by Yen and Der (J. Am. Oil Chem. Soc. 1993, 70, 383). Reducing power assay determines the reducing potential of the test compound which reacts with potassium ferricyanide (Fe^+3) to form potassium ferrocyanide (Fe^+2), which subsequently reacts with ferric chloride to produce a ferric-ferrous complex that has maximum absorption at 700 nm. Various concentrations (1-500 μM) of test compounds were taken in sodium phosphate buffer (0.1 M, pH 6.6) in 96-well microplates and mixed with potassium ferricyanide (1%). Samples were incubated at 50° C. and equal volume of 10% trichloroacetic acid was added. The upper layer was mixed with deionized water (1:1:2) and ferric chloride (0.1%). The absorbance was read at 700 nm on a Bio-Rad microplate reader (Bio-Rad, Hercules, Calif.). The increase in absorbance indicates increase in reducing power.
The reducing powers of synthetic (S,S)-SDG-1, synthetic (R,R)-SDG-2, natural (S,S)-SDG-1, ascorbic acid, and α-tocopherol were determined by the reduction of K3FeCN6 in the presence of FeCl3, as measured by the absorbance of the resulting ferric-ferrous complex (FIG. 2). […] This allowed the half maximal effective concentration (EC50) for reducing power to be calculated (FIG. 3).

[2] = DPPH radical scavenging assay; settings: for EC50: regression lines over 5-100 μM, 250 μM DPPH, Tris buffer pH 7.4, 20 min, n=3, read-out: DPPH free radical scavenging activity EC50
Procedure: The ability of the SDGs to scavenge DPPH radicals was assessed as described by Moree et al. (Free Rad. Anitox. 2011, 1, 31) with minor modifications for use in microplates. Briefly, different concentrations of SDG isomers and other test compounds were incubated with 200 μL medium in 96-well microplates containing 0.1 M Tris buffer (pH 7.4) and 250 μM DPPH solution, and kept in the dark for 20 min. The absorbance was read at 517 nm in a Bio-Rad microplate reader. Ascorbic acid and α-tocopherol were used as known antioxidants for comparison. The radical scavenging activity was measured as a decrease in the absorbance of DPPH and calculated using the following equation: Percentage inhibition=[O.D.control−O.D.treated/O.D.control]×100.
The free radical scavenging activities of synthetic (S,S)-SDG-1 and (R,R)-SDG-2 were determined using a 2,2-diphenyl-1-pierylhydrazyl (DPPH) free radical scavenging assay and was compared to those of natural (S,S)-SDG-1, ascorbic acid, and α-tocopherol (FIG. 4). […] Establishing regression lines for the potentials at low- and mid-concentration ranges (5-100 μM) allowed the free radical EC50 scavenging activity of these compounds to be determined.

[3] = Hydroxyl radical scavenging potential (HORAC assay); settings: for Antioxidant capacity Against Hydroxyl Radicals (GAE): HORAC assay, Fenton reaction, gallic acid equivalent, mean±SD, n=3; for Inhibition of fluorescein oxidation by hydroxyl radicals relative to gallic acid: HORAC, gallic acid standard, concentration-dependent
Procedure: The ability of SDGs to scavenge hydroxyl radicals in a chemical system was evaluated using HORAC Assay kit (# TA30) obtained from Oxford Biomedical Research. Hydroxyl radicals were generated from hydrogen peroxide by Fenton reaction. Oxidation of fluorescein was measured on a fluorescence microplate reader. Antioxidants inhibit fluorescein oxidation. Gallic acid was used as a standard for calibration curve. Calculations used SDG concentration that fit the linear part of the calibration curve. SDG concentrations were used in the range of […]. Antioxidant capacity against hydroxyl radicals was expressed as gallic acid equivalent (GAE).
(§1) The ability of synthetic (S,S)-SDG-1 and (R,R)-SDG-2 to scavenge hydroxyl and peroxyl radicals as manifested by their inhibition of the oxidation of fluorescein was assessed by the hydroxyl radical averting capacity (HORAC, gallic acid standard) and peroxyl radical absorbance capacity assays (ORAC, trolox standard), respectively (Table 1). […] However, synthetic (S,S)-SDG-1 activity differed from natural (S,S)-SDG-1, likely due to trace impurities.
(§2) In Table 1, hydroxyl radicals were generated from hydrogen peroxide by Fenton reaction. Peroxyl radicals were generated by AAPH (2,2′-azobis(2-amidinopropane) dihydrochloride). Oxidation of fluorescein was measured. Calculations used SDG concentrations that fitted the linear part of the calibration curve. The results are presented as mean±standard deviation (n=3).

[4] = Peroxyl radical scavenging potential (ORAC assay); settings: for Antioxidant capacity Against Peroxyl Radicals (TE): ORAC assay, AAPH-generated radicals, Trolox equivalents, mean±SD, n=3; for Inhibition of fluorescein oxidation by peroxyl radicals relative to trolox: ORAC, trolox standard, AAPH
Procedure: The ability of SDGs to scavenge peroxyl radicals in a chemical system was evaluated using an ORAC assay kit (# STA345) obtained from Cell Biolab (San Diego, Calif.). Peroxyl radicals were generated by AAPH (2,2′-azobis(2-amidinopropanedihydrochloride). Oxidation of fluorescein was measured using a fluorescence microplate reader. Antioxidants inhibit fluorescein oxidation. Trolox was used as a standard for calibration curve. Calculations used SDG concentrations that fit the linear part of the calibration curve. SDG concentrations were used in the range of 8 μM-1 mM. Antioxidant capacity against peroxyl radicals was expressed as Trolox equivalent (TE).
as §1, §2

`O=C1O[C@H]([C@@H](O)CO)C(O)=C1O` [ascorbic acid, reference compound] showed an EC50 [1] of 1130 ± 88.8 µM and an EC50 [2] of 440 ± 11.8 µM.

In the case of `COc1cc(C[C@H](CO[C@@H]2O[C@H](CO)[C@@H](O)[C@H](O)[C@H]2O)[C@@H](CO[C@@H]2O[C@H](CO)[C@@H](O)[C@H](O)[C@H]2O)Cc2ccc(O)c(OC)c2)ccc1O` [natural (S,S)-SDG-1, (S,S)-secoisolariciresinol diglucoside], the EC50 [1] is reported as 275 ± 13.2 µM, the “Antioxidant capacity Against Hydroxyl Radicals (GAE)” value [3] is reported as 3.68 ± 0.27 GAE and the “Antioxidant capacity Against Peroxyl Radicals (TE)” value [4] is reported as 2.55 ± 0.11 TE. The “Inhibition of fluorescein oxidation by peroxyl radicals relative to trolox” value [4] was “two-fold increase in potency over the trolox standard” and the EC50 [2] was 83.9 ± 2.8 µM.

With `COc1cc(C[C@@H](CO[C@@H]2O[C@H](CO)[C@@H](O)[C@H](O)[C@H]2O)[C@H](CO[C@@H]2O[C@H](CO)[C@@H](O)[C@H](O)[C@H]2O)Cc2ccc(O)c(OC)c2)ccc1O` [synthetic (R,R)-SDG-2, (R,R)-secoisolariciresinol diglucoside] the EC50 [1] was 332 ± 21.2 µM, the “Antioxidant capacity Against Hydroxyl Radicals (GAE)” value [3] was 1.96 ± 0.27 GAE and the “Inhibition of fluorescein oxidation by hydroxyl radicals relative to gallic acid” value [3] was “two-fold higher than gallic acid”. The “Antioxidant capacity Against Peroxyl Radicals (TE)” value [4] was 2.20 ± 0.10 TE, the “Inhibition of fluorescein oxidation by peroxyl radicals relative to trolox” value [4] was “two-fold increase in potency over the trolox standard” and the EC50 [2] was 124 ± 8.67 µM.

In the case of `COc1cc(C[C@H](CO[C@@H]2O[C@H](CO)[C@@H](O)[C@H](O)[C@H]2O)[C@@H](CO[C@@H]2O[C@H](CO)[C@@H](O)[C@H](O)[C@H]2O)Cc2ccc(O)c(OC)c2)ccc1O` [synthetic (S,S)-SDG-1, (S,S)-secoisolariciresinol diglucoside], the EC50 [1] is reported as 292 ± 27.7 µM, the “Antioxidant capacity Against Hydroxyl Radicals (GAE)” value [3] is reported as 2.09 ± 0.16 GAE and the “Inhibition of fluorescein oxidation by hydroxyl radicals relative to gallic acid” value [3] is reported as “two-fold higher than gallic acid”. The “Antioxidant capacity Against Peroxyl Radicals (TE)” value [4] was 3.03 ± 0.04 TE, the “Inhibition of fluorescein oxidation by peroxyl radicals relative to trolox” value [4] was “two-fold increase in potency over the trolox standard” and the “DPPH inhibition at higher concentrations” value ([2]; 250-500 μM) was “significantly lower than those exerted by (R,R)-SDG-2 and natural (S,S)-SDG-1”. It also gave an EC50 [2] of 158 ± 21.3 µM.

Work on `Cc1c(C)c2c(c(C)c1O)CC[C@@](C)(CCC[C@H](C)CCC[C@H](C)CCCC(C)C)O2` [α-tocopherol, reference compound] yielded an EC50 [1] of 945 ± 148 µM and an EC50 [2] of 133 ± 12.6 µM.
